Measured values from PubChem BioAssay (NCI).
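Grown in 96-well plates, cells were treated for 48 hours with each compound at five concentrations. Insufficient inhibition: endpoint recorded as highest concentration tested. TGI is the concentration that stops growth completely.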

What was measured:
Assay in all cases: NCI-60 cell line screen, 48 h
RXF 393 renal = tested on: RXF 393 renal
SF-268 CNS = tested on: SF-268 CNS
SN12C renal = tested on: SN12C renal
HOP-92 NSCLC = tested on: HOP-92 NSCLC
MOLT-4 leukemia = tested on: MOLT-4 leukemia
KM20L2 colon = tested on: KM20L2 colon
IGROV1 ovarian = tested on: IGROV1 ovarian
NCI-H23 lung = tested on: NCI-H23 lung
SR leukemia = tested on: SR leukemia
COLO 205 colon = tested on: COLO 205 colon
SK-MEL-2 melanoma = tested on: SK-MEL-2 melanoma
LOX IMVI melanoma = tested on: LOX IMVI melanoma
SK-MEL-28 melanoma = tested on: SK-MEL-28 melanoma
HOP-62 NSCLC = tested on: HOP-62 NSCLC
EKVX NSCLC = tested on: EKVX NSCLC
DMS 114 small cell lung = tested on: DMS 114 small cell lung
KM12 colon = tested on: KM12 colon
DMS 273 small cell lung = tested on: DMS 273 small cell lung
UACC-257 melanoma = tested on: UACC-257 melanoma
CAKI-1 renal = tested on: CAKI-1 renal
OVCAR-4 ovarian = tested on: OVCAR-4 ovarian
SK-OV-3 ovarian = tested on: SK-OV-3 ovarian
OVCAR-3 ovarian = tested on: OVCAR-3 ovarian
NCI-H522 lung = tested on: NCI-H522 lung
SK-MEL-5 melanoma = tested on: SK-MEL-5 melanoma
NCI-H226 lung = tested on: NCI-H226 lung
CCRF-CEM leukemia = tested on: CCRF-CEM leukemia
OVCAR-5 ovarian = tested on: OVCAR-5 ovarian
HCT-116 colon = tested on: HCT-116 colon
K-562 leukemia = tested on: K-562 leukemia
HCC-2998 colon = tested on: HCC-2998 colon
NCI-H460 lung = tested on: NCI-H460 lung
TK-10 renal = tested on: TK-10 renal
RPMI-8226 leukemia = tested on: RPMI-8226 leukemia
U251 CNS = tested on: U251 CNS
SW-620 colon = tested on: SW-620 colon
SNB-75 CNS = tested on: SNB-75 CNS
HT29 colon = tested on: HT29 colon
M19-MEL melanoma = tested on: M19-MEL melanoma
ACHN renal = tested on: ACHN renal
UACC-62 melanoma = tested on: UACC-62 melanoma
UO-31 renal = tested on: UO-31 renal
M14 melanoma = tested on: M14 melanoma
SF-295 CNS = tested on: SF-295 CNS
DLD-1 colon = tested on: DLD-1 colon
OVCAR-8 ovarian = tested on: OVCAR-8 ovarian
HCT-15 colon = tested on: HCT-15 colon
MALME-3M melanoma = tested on: MALME-3M melanoma
LXFL 529 NSCLC = tested on: LXFL 529 NSCLC
HL-60(TB) leukemia = tested on: HL-60(TB) leukemia

O=C1CN2C(Cl)(Cl)C2(c2ccccc2)c2cc(Cl)ccc2N1CC(F)(F)F (stereo not given)
TGI (RXF 393 renal): 63.6 µM
TGI (SF-268 CNS): > 100 µM
TGI (SN12C renal): 30.6 µM
TGI (HOP-92 NSCLC): 41.1 µM
TGI (MOLT-4 leukemia): 55.8 µM
TGI (KM20L2 colon): > 100 µM
TGI (IGROV1 ovarian): 73.7 µM
TGI (NCI-H23 lung): 70.1 µM
TGI (SR leukemia): 69.9 µM
TGI (COLO 205 colon): 39.3 µM
TGI (SK-MEL-2 melanoma): 54.9 µM
TGI (LOX IMVI melanoma): 39 µM
TGI (SK-MEL-28 melanoma): 61 µM
TGI (HOP-62 NSCLC): 60.7 µM
TGI (EKVX NSCLC): > 100 µM
TGI (DMS 114 small cell lung): 66.6 µM
TGI (KM12 colon): 42.2 µM
TGI (DMS 273 small cell lung): 72.7 µM
TGI (UACC-257 melanoma): 51.9 µM
TGI (CAKI-1 renal): > 100 µM
TGI (OVCAR-4 ovarian): 43.7 µM
TGI (SK-OV-3 ovarian): > 100 µM
TGI (OVCAR-3 ovarian): 39 µM
TGI (NCI-H522 lung): 42.7 µM
TGI (SK-MEL-5 melanoma): 33.2 µM
TGI (NCI-H226 lung): 67 µM
TGI (CCRF-CEM leukemia): 42.3 µM
TGI (OVCAR-5 ovarian): > 100 µM
TGI (HCT-116 colon): 49.3 µM
TGI (K-562 leukemia): 72.1 µM
TGI (HCC-2998 colon): 35.9 µM
TGI (NCI-H460 lung): 35.9 µM
TGI (TK-10 renal): > 100 µM
TGI (RPMI-8226 leukemia): 78.5 µM
TGI (U251 CNS): 37.8 µM
TGI (SW-620 colon): > 100 µM
TGI (SNB-75 CNS): 51.2 µM
TGI (HT29 colon): 48.1 µM
TGI (M19-MEL melanoma): > 100 µM
TGI (ACHN renal): > 100 µM
TGI (UACC-62 melanoma): > 100 µM
TGI (UO-31 renal): > 100 µM
TGI (M14 melanoma): 77.5 µM
TGI (SF-295 CNS): > 100 µM
TGI (DLD-1 colon): 42.9 µM
TGI (OVCAR-8 ovarian): > 100 µM
TGI (HCT-15 colon): 81.6 µM
TGI (MALME-3M melanoma): 87 µM

COc1c2c(cc3c(CCc4ccccc4)cc(=O)oc13)CCC(C)(C)O2
TGI (RXF 393 renal): > 100 µM
TGI (SF-268 CNS): > 100 µM
TGI (LXFL 529 NSCLC): > 100 µM
TGI (SN12C renal): > 100 µM
TGI (HOP-92 NSCLC): > 100 µM
TGI (MOLT-4 leukemia): > 100 µM
TGI (KM20L2 colon): > 100 µM
TGI (IGROV1 ovarian): > 100 µM
TGI (NCI-H23 lung): > 100 µM
TGI (SR leukemia): > 100 µM
TGI (COLO 205 colon): > 100 µM
TGI (SK-MEL-2 melanoma): > 100 µM
TGI (LOX IMVI melanoma): > 100 µM
TGI (SK-MEL-28 melanoma): > 100 µM
TGI (HOP-62 NSCLC): > 100 µM
TGI (EKVX NSCLC): > 100 µM
TGI (DMS 114 small cell lung): > 100 µM
TGI (KM12 colon): > 100 µM
TGI (DMS 273 small cell lung): > 100 µM
TGI (UACC-257 melanoma): > 100 µM
TGI (SK-OV-3 ovarian): > 100 µM
TGI (OVCAR-3 ovarian): > 100 µM
TGI (SK-MEL-5 melanoma): > 100 µM
TGI (NCI-H226 lung): > 100 µM
TGI (CCRF-CEM leukemia): > 100 µM
TGI (OVCAR-5 ovarian): > 100 µM
TGI (HCT-116 colon): > 100 µM
TGI (K-562 leukemia): > 100 µM
TGI (HCC-2998 colon): > 100 µM
TGI (NCI-H460 lung): > 100 µM
TGI (TK-10 renal): > 100 µM
TGI (RPMI-8226 leukemia): > 100 µM
TGI (U251 CNS): > 100 µM
TGI (SW-620 colon): > 100 µM
TGI (SNB-75 CNS): > 100 µM
TGI (HT29 colon): > 100 µM
TGI (M19-MEL melanoma): > 100 µM
TGI (ACHN renal): > 100 µM
TGI (UACC-62 melanoma): > 100 µM
TGI (UO-31 renal): > 100 µM
TGI (M14 melanoma): > 100 µM
TGI (SF-295 CNS): > 100 µM
TGI (HL-60(TB) leukemia): > 100 µM
TGI (DLD-1 colon): > 100 µM
TGI (OVCAR-8 ovarian): > 100 µM
TGI (HCT-15 colon): > 100 µM
TGI (MALME-3M melanoma): > 100 µM
